{
  "source": "patent US4175125A",
  "about": "“Method for treating methicillin resistant staphylococcus aureus” (Eli Lilly and Company, priority 1978, dated 1979)",
  "system": "Staphylococcus aureus cultures",
  "test": "Modified Bauer-Kirby Disc Susceptibility Test (Example 11)",
  "assay_type": "cell-based",
  "set-up": "zone of inhibition: dose or concentration left out as unconfirmed",
  "settings": "for zone of inhibition: Staphylococcus aureus; for Change 37°-30°: 30 mg Disc",
  "description": "This example exemplifies the antibiotic activity of 7-[2'-(3\"-chloro-4\"-fluorophenylthio)acetamido]cephalosporanic acid, a water soluble compound, described in Example 8, against various Staphylococcus aureus cultures, in a modified Bauer-Kirby Disc Susceptibility Test (Bauer, A. W., W. M. M. Kirby, J. C. Sherris, and M. Turck, 1966, Amer. J. Clin. Pathol. 45:493-496). In this test the cultures were incubated at both 37° C. or 30° C. […] 16, 1968, the heterogeneity of methicilllin-resistant S. aureus is manifested by incubation at 30° C.",
  "note": "Counter-ions that a name gives are not always drawn. Like-named read-outs stand apart in the source and are kept apart here.",
  "data": [
    {"smiles": "CC(=O)OCC1=C(C(=O)O)N2C(=O)C(NC(=O)CSc3ccc(F)c(Cl)c3)C2SC1", "note": "(stereo not drawn) [Example 8, 7-(3'-chloro-4-fluorophenylthioacetamido)cephalosporanic acid, sodium salt]", "values": [
      {"measurement": "zone of inhibition", "setting": "culture 3055 (penicillin sensitive), 30°, read-out: disc susceptibility (zone) at 30°", "value": "> 35", "unit": "mm"},
      {"measurement": "zone of inhibition", "setting": "culture 3055 (penicillin sensitive), 37°, read-out: disc susceptibility (zone) at 37°", "value": "> 35", "unit": "mm"},
      {"measurement": "zone of inhibition", "setting": "culture 3074 (methicillin sensitive, penicillinase producing), 30°, read-out: disc susceptibility (zone) at 30°", "value": 36, "unit": "mm"},
      {"measurement": "zone of inhibition", "setting": "culture 3074 (methicillin sensitive, penicillinase producing), 37°, read-out: disc susceptibility (zone) at 37°", "value": 36, "unit": "mm"},
      {"measurement": "zone of inhibition", "setting": "culture 3125 (methicillin resistant), 30°, read-out: disc susceptibility (zone) at 30°", "value": 36, "unit": "mm"},
      {"measurement": "zone of inhibition", "setting": "culture 3125 (methicillin resistant), 37°, read-out: disc susceptibility (zone) at 37°", "value": 33.8, "unit": "mm"},
      {"measurement": "zone of inhibition", "setting": "culture 3130 (methicillin resistant), 30°, read-out: disc susceptibility (zone) at 30°", "value": 31, "unit": "mm"},
      {"measurement": "zone of inhibition", "setting": "culture 3130 (methicillin resistant), 37°, read-out: disc susceptibility (zone) at 37°", "value": 33.2, "unit": "mm"},
      {"measurement": "zone of inhibition", "setting": "culture 3131 (methicillin resistant), 30°, read-out: disc susceptibility (zone) at 30°", "value": 29, "unit": "mm"},
      {"measurement": "zone of inhibition", "setting": "culture 3131 (methicillin resistant), 37°, read-out: disc susceptibility (zone) at 37°", "value": 26.6, "unit": "mm"},
      {"measurement": "zone of inhibition", "setting": "culture 3132 (methicillin resistant), 30°, read-out: disc susceptibility (zone) at 30°", "value": 28, "unit": "mm"},
      {"measurement": "zone of inhibition", "setting": "culture 3132 (methicillin resistant), 37°, read-out: disc susceptibility (zone) at 37°", "value": 29.4, "unit": "mm"},
      {"measurement": "zone of inhibition", "setting": "culture 3133 (methicillin resistant), 30°, read-out: disc susceptibility (zone) at 30°", "value": 24.8, "unit": "mm"},
      {"measurement": "zone of inhibition", "setting": "culture 3133 (methicillin resistant), 37°, read-out: disc susceptibility (zone) at 37°", "value": 27.6, "unit": "mm"},
      {"measurement": "zone of inhibition", "setting": "culture 3134 (methicillin resistant), 30°, read-out: disc susceptibility (zone) at 30°", "value": 27.8, "unit": "mm"},
      {"measurement": "zone of inhibition", "setting": "culture 3134 (methicillin resistant), 37°, read-out: disc susceptibility (zone) at 37°", "value": 28, "unit": "mm"},
      {"measurement": "zone of inhibition", "setting": "culture 3135 (methicillin resistant), 30°, read-out: disc susceptibility (zone) at 30°", "value": 26.2, "unit": "mm"},
      {"measurement": "zone of inhibition", "setting": "culture 3135 (methicillin resistant), 37°, read-out: disc susceptibility (zone) at 37°", "value": 28.2, "unit": "mm"},
      {"measurement": "zone of inhibition", "setting": "culture 3136 (methicillin resistant), 30°, read-out: disc susceptibility (zone) at 30°", "value": 31, "unit": "mm"},
      {"measurement": "zone of inhibition", "setting": "culture 3136 (methicillin resistant), 37°, read-out: disc susceptibility (zone) at 37°", "value": 35, "unit": "mm"},
      {"measurement": "zone of inhibition", "setting": "culture 3137 (methicillin resistant), 30°, read-out: disc susceptibility (zone) at 30°", "value": 22.1, "unit": "mm"},
      {"measurement": "zone of inhibition", "setting": "culture 3137 (methicillin resistant), 37°, read-out: disc susceptibility (zone) at 37°", "value": 24.4, "unit": "mm"},
      {"measurement": "zone of inhibition", "setting": "culture 3138 (methicillin resistant), 30°, read-out: disc susceptibility (zone) at 30°", "value": 25.2, "unit": "mm"},
      {"measurement": "zone of inhibition", "setting": "culture 3138 (methicillin resistant), 37°, read-out: disc susceptibility (zone) at 37°", "value": 25.6, "unit": "mm"},
      {"measurement": "zone of inhibition", "setting": "culture 3139 (methicillin resistant), 30°, read-out: disc susceptibility (zone) at 30°", "value": 31.6, "unit": "mm"},
      {"measurement": "zone of inhibition", "setting": "culture 3139 (methicillin resistant), 37°, read-out: disc susceptibility (zone) at 37°", "value": 34, "unit": "mm"},
      {"measurement": "zone of inhibition", "setting": "culture 3140 (methicillin resistant), 30°, read-out: disc susceptibility (zone) at 30°", "value": 26.4, "unit": "mm"},
      {"measurement": "zone of inhibition", "setting": "culture 3140 (methicillin resistant), 37°, read-out: disc susceptibility (zone) at 37°", "value": 28.4, "unit": "mm"},
      {"measurement": "zone of inhibition", "setting": "culture H232 (methicillin sensitive, penicillinase producing), 30°, read-out: disc susceptibility (zone) at 30°", "value": 34.3, "unit": "mm"},
      {"measurement": "zone of inhibition", "setting": "culture H232 (methicillin sensitive, penicillinase producing), 37°, read-out: disc susceptibility (zone) at 37°", "value": 33.4, "unit": "mm"},
      {"measurement": "Change 37°-30°", "setting": "culture 3074", "value": 0, "unit": "mm"},
      {"measurement": "Change 37°-30°", "setting": "culture 3125", "value": "+2.2 mm"},
      {"measurement": "Change 37°-30°", "setting": "culture 3130", "value": -2.2, "unit": "mm"},
      {"measurement": "Change 37°-30°", "setting": "culture 3131", "value": "+2.4 mm"},
      {"measurement": "Change 37°-30°", "setting": "culture 3132", "value": -1.4, "unit": "mm"},
      {"measurement": "Change 37°-30°", "setting": "culture 3133", "value": -2.8, "unit": "mm"},
      {"measurement": "Change 37°-30°", "setting": "culture 3134", "value": -0.2, "unit": "mm"},
      {"measurement": "Change 37°-30°", "setting": "culture 3135", "value": -2.0, "unit": "mm"},
      {"measurement": "Change 37°-30°", "setting": "culture 3136", "value": -4.0, "unit": "mm"},
      {"measurement": "Change 37°-30°", "setting": "culture 3137", "value": -2.3, "unit": "mm"},
      {"measurement": "Change 37°-30°", "setting": "culture 3138", "value": -0.4, "unit": "mm"},
      {"measurement": "Change 37°-30°", "setting": "culture 3139", "value": -2.4, "unit": "mm"},
      {"measurement": "Change 37°-30°", "setting": "culture 3140", "value": -2.0, "unit": "mm"},
      {"measurement": "Change 37°-30°", "setting": "culture H232", "value": "+0.9 mm"},
      {"measurement": "effectiveness vs cephalothin in disc susceptibility test", "setting": "incubation at 37° C. or 30° C.", "value": "more effective than cephalothin"}
    ]}
  ]
}
